The values that follow come from patent US6703421B1, “Methods of using phenylmethylbenzoquinone and hydroquinone compounds for treatment of myocarditis, dilated cardiomyopathy and heart failure” (Daiichi Suntory Pharma Co., Ltd., priority 1999, dated 2004).

Where two headings read alike, the source gives them in different places.

By IC50 is commonly meant the concentration that gives 50% inhibition.

For one assay, the system named is rat adjuvant arthritis. As to conditions: Pierce J W, et al. (1997) J. Biol. Chem. 272, 21096-21103; cited from earlier work.
The test system of assay [1] is EMC virus-inoculated DBA/2 mice (viral myocarditis). Nature of the assay: Histopathology of heart (cardiac necrosis, cellular infiltration) in murine myocarditis model. The format is in vivo, mouse. The note with it: 30 mg/kg, hearts on days 7 and 8, score 0-4, vs control group; FIG. 5. As for the experimental part:
NF-κB inhibitor (compound of Production Example 7) was administered at 30 mg/kg body weight using the similar method as Example 3 to the mouse myocarditis model prepared in the similar manner as Example 2. The whole hearts of those mice alive on days 7 and 8 (n=10) were extripated, exsanguinated and washed with phosphate-buffered saline. Subsequently, paraffin embedded and sectioned specimens were prepared by fixing the tissue with 10% formalin. The specimens were stained with hematoxylin-eosin stain followed by examination of histopathological findings.
In cross-sectional images taken along the minor axis of the left ventricle under light microscopy, the percentage of cardiac necrosis features or cellular infiltration was classified into 0 (no damage), 1 (less than 25%), 2 (25% to less than 50%), 3 (50% to less than 75%) and 4 (75% or more), and respectively observed by two observers. The evaluations of the two observers were averaged to obtain a single evaluation. The results obtained were tested for the presence of a significant difference by analysis of variance (ANOVA) according to Bonferroni's multiple comparison method, and statistical significance was defined as p<0.05.
Test group (n=10): Administration of NF-κB inhibitor (Production Example 7) at 30 mg/kg body weight

The subject of a further assay is IL-1β. Nature of the assay: IL-1β mRNA level in heart by TaqMan PCR, murine myocarditis model. The format is in vivo, mouse. The note with it: 30 mg/kg intraperitoneally daily for 5 days, heart day 5, corrected with GAPDH, vs infected control; FIG. 6. The procedure:
(§1) Four-week-old DBA/2 male mice were inoculated with EMC virus in the same manner as Example 3 followed by intraperitoneal administration of the compound of Production Example 7 dissolved in 10% DMSO or 10% DMSO only daily for 5 days starting 2 hours after inoculation. The whole hearts were excised from mice of the Production Example 7 compound group, 10% DMSO group and non-infected group on day 5 of viral infection, and after extracting RNA using ISOGEN (Wako Pure Chemical Industries), cDNA was obtained in accordance with the procedure of the SuperScript Preamplification System (Lifetech Oriental). The mRNA levels of TNF-α, IL-1β and iNOS were assayed by TaqMan PCR using this cDNA as templates. Detection was performed using the PRISM7700 (PE Biosystems Japan) in accordance with the protocol of the PCR assay system (PE Biosystems Japan). The following primers and TaqMan probes were used for detection.
(§2) The amount of RNA of each sample was corrected with the amount of glyceraldehyde-3-phosphate dehydrogenase (GAPDH) gene.
(§3) Infected group (administered compound of Production Example 7) (n=10) Administration of NF-κB inhibitor (Production Example 7) at 30 mg/kg body weight
(In general: Real-time PCR tracks product formation cycle by cycle.)

Assay [2] relates to EMC virus-inoculated DBA/2 mice (viral myocarditis). Nature of the assay: Survival rate in murine viral myocarditis model. It is filed as in vivo, mouse. As to conditions: 10% DMSO, Kaplan-Meier p<0.05, FIG. 3. As for the experimental part: Viral myocarditis mice were prepared using the procedure described below in accordance with a known method (Shioi T. et al. (1997) J. Mol. Cell. Cardiol., 29, 2327-2334). Variant M (acquired from the American Type Culture Collection) was used for the EMC virus for inoculation and prepared to 100 pfu/ml in Eagle's MEM medium (Nissui Pharmaceutical). Four-week-old DBA/2 male mice were divided into two groups, and intraperitoneally inoculated with EMC virus at 10 pfu/animal. Test compound was then administered intraperitoneally and daily for 14 days under the following conditions to each group starting 3 hours after inoculation.
The test compound was used after dissolving in 0.5% aqueous gum arabic solution (3 mg/ml). In the present example, the compound of Production Example 4 was used in the test as the NF-κB inhibitor.
Test group (n=10): Administration of NF-κB inhibitor (Production Example 4) at 30 mg/kg body weight Control group (n=10): 0.5% aqueous gum arabic solution
The experiment was conducted in the following three groups using the same method as Example 2 and the compound of Production Example 7 for the NF-κB inhibitor. The test compound was used after dissolving in 10% aqueous dimethylsulfoxide solution (DMSO) (test group 1: 0.3 mg/ml, test group 2: 3 mg/ml). The survival rates were tested for the presence of a significant difference according to the Kaplan-Meier method, and statistical significance was defined as p<0.05.
Test group 1 (n=21): Administration of NF-κB inhibitor (Production Example 7) at 3 mg/kg body weight
Test group 2 (n=21): Administration of NF-κB inhibitor (Production Example 7) at 30 mg/kg body weight
Four-week-old DBA/2 male mice were inoculated with EMC virus using the same method as Example 2, and the test compound was administered orally and daily for 14 days under the following conditions to each group starting 2 hours after inoculation.
The test compound was used after dissolving in 10% aqueous sulfobutylcyclodextrin solution (3 mg/ml). In the present example, the compound of Production Example 44 was used in the test as the NF-κB inhibitor.
Test group (n=20): Administration of NF-κB inhibitor (Production Example 44) at 30 mg/kg body weight

In a further assay the test system is iNOS. Nature of the assay: iNOS mRNA level in heart by TaqMan PCR, murine myocarditis model. The note with it: 30 mg/kg intraperitoneally daily for 5 days, heart day 5, corrected with GAPDH, vs infected control; FIG. 6. The format is in vivo, mouse. The procedure: as §1, §2, §3
Another assay relates to TNF-α. Kind of assay: TNF-α mRNA level in heart by TaqMan PCR, murine myocarditis model. The format is in vivo, mouse. The note with it: 30 mg/kg intraperitoneally daily for 5 days, heart day 5, corrected with GAPDH, vs infected control; FIG. 6. As for the experimental part: as §1, §2, §3
The test system of the next assay is NF-κB. Kind of assay: NF-κB luciferase reporter assay in A549/NF-κBLuc cells. It is filed as cell-based, human. As to conditions: Homo sapiens, A549/NF-κBLuc, luciferase activity. The procedure:
Using lipofectamine (Lifetech Oriental K. K., Tokyo) according to the conventional method, human lung cancer cell line A549 cells (ATCC catalog no. CCL185), which are known to express hiNOS by cytokine stimulation, were co-transfected with pNFκB-Luc, which are plasmid controlled by a NF-κB binding consensus sequence, and pSV2neo (Clontech, U.S.A.), and then A549/NF-κBLuc, the cell that has stably introduced pNFκB-Luc, was selected by adding G418 sulfate (1 mg/ml, Lifetech Oriental K. K.) to the culture medium.
The luciferase activity was measured using the Luciferase Assay System (Promega, U.S.A.).
(Reporter assays use an easily measured gene product as a stand-in for the process of interest.)

In the case of `CC(C)(C)c1ccc(S(=O)(=O)/C=C/C#N)cc1` [BAY11-7083], the “effect in rat adjuvant arthritis” value with rat adjuvant arthritis is given as “exhibit an effect”.
Consider `COC1=C(OC)C(=O)C(Cc2ccc(CCC(=O)N3CCCCC3)cc2)=C(C)C1=O` [Prod. Ex. 7], for which, in assay [1], the cardiac necrosis entry was “significantly inhibited”. Further, in assay [1], the cellular infiltration entry is recorded as “significantly inhibited”. In addition, the “expression of IL-1β at the mRNA level” value in the assay with IL-1β is “significantly inhibited”. Also, the survival rate entry in assay [2] (3 mg/kg intraperitoneally daily for 14 days) and in assay [2] (30 mg/kg intraperitoneally daily for 14 days) was “significantly improve survival rate” in each case. Further, the “expression of iNOS at the mRNA level” value in the assay with iNOS was “significantly inhibited”. Moreover, the “expression of TNF-α at the mRNA level” value with TNF-α is on record as “significantly inhibited”. Besides, the IC50 was determined as 4 µM in the assay on NF-κB (IL-1β (1 ng/ml) for 4 hours, read-out: IC50 (μM) IL-1 stimulation) and 10 µM in the assay with NF-κB (TNF-α (500 ng/ml) for 4 hours, read-out: IC50 (μM) TNF stimulation).
